{"source": "patent US10227344B2", "about": "“CK2 inhibitors, compositions and methods thereof” (Polaris Pharmaceuticals, Inc., priority 2016, dated 2019)", "type_in_all_cases": "cell-based", "key": {"MOLT4": {"test_system": "MOLT4", "assay": "Cancer cell panel, cell viability (resazurin): Leukemia, MOLT4", "details": "72 hours, labelled drug combined with Example 3"}, "SK-MEL-24": {"test_system": "SK-MEL-24", "assay": "Cancer cell panel, cell viability (resazurin): Melanoma, SK-MEL-24", "details": "SK-MEL-24 (Melanoma), 72 hours; labelled drug combined with Example 3"}, "Daudi": {"test_system": "Daudi", "assay": "Cancer cell panel, cell viability (resazurin): Burkitt's Lymphoma, Daudi", "details": "72 hours, labelled drug combined with Example 3"}, "Colo205": {"test_system": "Colo205", "assay": "Cancer cell panel, cell viability (resazurin): Colon, Colo205", "details": "72 hours, labelled drug combined with Example 3", "procedure": "(§1) Cells were plated in 96-well plates and treated for 72 hours with a serially diluted CK2 inhibitor or anti-cancer drug or their combination. The suspension cell lines were treated right after plating, while the adherent cells were allowed to attach overnight prior to the start of the treatment.\n(§2) Cell viability was determined by adding resazurin to cell cultures and measuring fluorescence with a plate reader. Relative cell viability was calculated by dividing the cell viability signal from a test sample by that of a non-treated control. […] Bliss Independence and Highest Single Agent models were used to determine if there is synergy, additivity or antagonism between the CK2 inhibitor and an anti-cancer drug."}, "LoVo": {"test_system": "LoVo", "assay": "Cancer cell panel, cell viability (resazurin): Colon, LoVo", "details": "72 hours, labelled drug combined with Example 3", "procedure": "as §1, §2"}, "SKOV-3": {"test_system": "SKOV-3", "assay": "Cancer cell panel, cell viability (resazurin): Ovarian, SKOV-3", "details": "SKOV-3 (Ovarian), 72 hours; labelled drug combined with Example 3", "procedure": "as §1, §2"}, "PC3": {"test_system": "PC3", "assay": "Cancer cell panel, cell viability (resazurin): Prostate, PC3", "details": "72 hours, labelled drug combined with Example 3", "procedure": "as §1, §2"}, "H2122": {"test_system": "H2122", "assay": "Cancer cell panel, cell viability (resazurin): NSCLC, H2122", "details": "72 hours, labelled drug combined with Example 3", "procedure": "as §1, §2"}, "K562": {"test_system": "K562", "assay": "Cancer cell panel, cell viability (resazurin): Leukemia, K562", "details": "72 hours, labelled drug combined with Example 3"}, "ACHN": {"test_system": "ACHN", "assay": "Cancer cell panel, cell viability (resazurin): Renal, ACHN", "details": "72 hours, labelled drug combined with Example 3"}, "BT-474": {"test_system": "BT-474", "assay": "Cancer cell panel, cell viability (resazurin): Breast, BT-474", "details": "BT-474 (Breast), 72 hours; labelled drug combined with Example 3"}, "DLD-1": {"test_system": "DLD-1", "assay": "Cancer cell panel, cell viability (resazurin): Colon, DLD-1", "details": "DLD-1 (Colon), 72 hours; labelled drug combined with Example 3"}, "BxPC3": {"test_system": "BxPC3", "assay": "Cancer cell panel, cell viability (resazurin): Pancreatic, BxPC3", "details": "72 hours, labelled drug combined with Example 3"}, "H1975": {"test_system": "H1975", "assay": "Cancer cell panel, cell viability (resazurin): NSCLC, H1975", "details": "72 hours, labelled drug combined with Example 3"}, "SkBr-3": {"test_system": "SkBr-3", "assay": "Cancer cell panel, cell viability (resazurin): Breast, SkBr-3", "details": "SkBr-3 (Breast), 72 hours; labelled drug combined with Example 3"}, "A375": {"test_system": "A375", "assay": "Cancer cell panel, cell viability (resazurin): Melanoma, A375", "details": "72 hours, labelled drug combined with Example 3", "procedure": "as §1, §2"}, "RPMI8226": {"test_system": "RPMI8226", "assay": "Cancer cell panel, cell viability (resazurin): multiple myeloma, RPMI8226", "details": "72 hours, labelled drug combined with Example 3"}, "LnCap": {"test_system": "LnCap", "assay": "Cancer cell panel, cell viability (resazurin): Prostate, LnCap", "details": "72 hours, labelled drug combined with Example 3", "procedure": "as §1, §2"}, "Raji": {"test_system": "Raji", "assay": "Cancer cell panel, cell viability (resazurin): Burkitt's Lymphoma, Raji", "details": "72 hours, labelled drug combined with Example 3", "procedure": "as §1, §2"}, "Caki-1": {"test_system": "Caki-1", "assay": "Cancer cell panel, cell viability (resazurin): Renal, Caki-1", "details": "Caki-1 (Renal), 72 hours; labelled drug combined with Example 3"}, "BT-20": {"test_system": "BT-20", "assay": "Cancer cell panel, cell viability (resazurin): Breast, BT-20", "details": "BT-20 (Breast), 72 hours; labelled drug combined with Example 3"}, "ZR-75-1": {"test_system": "ZR-75-1", "assay": "Cancer cell panel, cell viability (resazurin): Breast, ZR-75-1", "details": "ZR-75-1 (Breast), 72 hours; labelled drug combined with Example 3"}, "MeWO": {"test_system": "MeWO", "assay": "Cancer cell panel, cell viability (resazurin): Melanoma, MeWO", "details": "72 hours, labelled drug combined with Example 3", "procedure": "as §1, §2"}}}
{"smiles": "Nc1ccn([C@@H]2O[C@H](CO)[C@@H](O)C2(F)F)c(=O)n1", "note": "[Gemcitabine, gemcitabine]", "values": [{"measurement": "synergy, additivity or antagonism of the combination of Example 3 with the anti-cancer drug", "setting": "MOLT4", "value": "+ + + (Synergy relative to each agent alone (CI = 0.4-0.74 by Bliss Independence Model))"}, {"measurement": "synergy, additivity or antagonism of the combination of Example 3 with the anti-cancer drug", "setting": "SK-MEL-24", "value": "+ (Additive relative to each agent alone (CI = 0.9-1 by Bliss Independence Model and <0.9 by Highest Single Agent Model))"}, {"measurement": "synergy, additivity or antagonism of the combination of Example 3 with the anti-cancer drug", "setting": "Daudi", "value": "+ + (Slight synergy relative to each agent alone (CI = 0.75-0.9 by Bliss Independence Model))"}, {"measurement": "synergy, additivity or antagonism of the combination of Example 3 with the anti-cancer drug", "setting": "Colo205", "value": "+ (Additive relative to each agent alone (CI = 0.9-1 by Bliss Independence Model and <0.9 by Highest Single Agent Model))"}, {"measurement": "synergy, additivity or antagonism of the combination of Example 3 with the anti-cancer drug", "setting": "LoVo", "value": "+ (Additive relative to each agent alone (CI = 0.9-1 by Bliss Independence Model and <0.9 by Highest Single Agent Model))"}, {"measurement": "synergy, additivity or antagonism of the combination of Example 3 with the anti-cancer drug", "setting": "SKOV-3", "value": "+ + (Slight synergy relative to each agent alone (CI = 0.75-0.9 by Bliss Independence Model))"}, {"measurement": "synergy, additivity or antagonism of the combination of Example 3 with the anti-cancer drug", "setting": "PC3", "value": "+ (Additive relative to each agent alone (CI = 0.9-1 by Bliss Independence Model and <0.9 by Highest Single Agent Model))"}, {"measurement": "synergy, additivity or antagonism of the combination of Example 3 with the anti-cancer drug", "setting": "H2122", "value": "+ + (Slight synergy relative to each agent alone (CI = 0.75-0.9 by Bliss Independence Model))"}, {"measurement": "synergy, additivity or antagonism of the combination of Example 3 with the anti-cancer drug", "setting": "K562", "value": "+ (Additive relative to each agent alone (CI = 0.9-1 by Bliss Independence Model and <0.9 by Highest Single Agent Model))"}, {"measurement": "synergy, additivity or antagonism of the combination of Example 3 with the anti-cancer drug", "setting": "ACHN", "value": "+ (Additive relative to each agent alone (CI = 0.9-1 by Bliss Independence Model and <0.9 by Highest Single Agent Model))"}, {"measurement": "synergy, additivity or antagonism of the combination of Example 3 with the anti-cancer drug", "setting": "BT-474", "value": "+ (Additive relative to each agent alone (CI = 0.9-1 by Bliss Independence Model and <0.9 by Highest Single Agent Model))"}, {"measurement": "synergy, additivity or antagonism of the combination of Example 3 with the anti-cancer drug", "setting": "DLD-1", "value": "+ (Additive relative to each agent alone (CI = 0.9-1 by Bliss Independence Model and <0.9 by Highest Single Agent Model))"}, {"measurement": "synergy, additivity or antagonism of the combination of Example 3 with the anti-cancer drug", "setting": "BxPC3", "value": "+ + + (Synergy relative to each agent alone (CI = 0.4-0.74 by Bliss Independence Model))"}, {"measurement": "synergy, additivity or antagonism of the combination of Example 3 with the anti-cancer drug", "setting": "H1975", "value": "+ (Additive relative to each agent alone (CI = 0.9-1 by Bliss Independence Model and <0.9 by Highest Single Agent Model))"}, {"measurement": "synergy, additivity or antagonism of the combination of Example 3 with the anti-cancer drug", "setting": "SkBr-3", "value": "+ (Additive relative to each agent alone (CI = 0.9-1 by Bliss Independence Model and <0.9 by Highest Single Agent Model))"}, {"measurement": "synergy, additivity or antagonism of the combination of Example 3 with the anti-cancer drug", "setting": "A375", "value": "+ (Additive relative to each agent alone (CI = 0.9-1 by Bliss Independence Model and <0.9 by Highest Single Agent Model))"}, {"measurement": "synergy, additivity or antagonism of the combination of Example 3 with the anti-cancer drug", "setting": "RPMI8226", "value": "+ + (Slight synergy relative to each agent alone (CI = 0.75-0.9 by Bliss Independence Model))"}, {"measurement": "synergy, additivity or antagonism of the combination of Example 3 with the anti-cancer drug", "setting": "LnCap", "value": "+ (Additive relative to each agent alone (CI = 0.9-1 by Bliss Independence Model and <0.9 by Highest Single Agent Model))"}, {"measurement": "synergy, additivity or antagonism of the combination of Example 3 with the anti-cancer drug", "setting": "Raji", "value": "+ + (Slight synergy relative to each agent alone (CI = 0.75-0.9 by Bliss Independence Model))"}, {"measurement": "synergy, additivity or antagonism of the combination of Example 3 with the anti-cancer drug", "setting": "Caki-1", "value": "+ (Additive relative to each agent alone (CI = 0.9-1 by Bliss Independence Model and <0.9 by Highest Single Agent Model))"}, {"measurement": "synergy, additivity or antagonism of the combination of Example 3 with the anti-cancer drug", "setting": "BT-20", "value": "+ (Additive relative to each agent alone (CI = 0.9-1 by Bliss Independence Model and <0.9 by Highest Single Agent Model))"}, {"measurement": "synergy, additivity or antagonism of the combination of Example 3 with the anti-cancer drug", "setting": "ZR-75-1", "value": "+ (Additive relative to each agent alone (CI = 0.9-1 by Bliss Independence Model and <0.9 by Highest Single Agent Model))"}, {"measurement": "synergy, additivity or antagonism of the combination of Example 3 with the anti-cancer drug", "setting": "MeWO", "value": "+ (Additive relative to each agent alone (CI = 0.9-1 by Bliss Independence Model and <0.9 by Highest Single Agent Model))"}]}
